As a reminder, the IC50 is the point on the concentration scale where inhibition reaches its midpoint. One may read the EC50 as the midpoint of the concentration-response curve.

The test system of series [1] is human cytomegalovirus (HCMV). The series is classed as cell-based.
The subject of series [2] is HSV-1 (KOS). In words: HSV-1 infection ELISA assay. The series is classed as cell-based, herpes simplex virus. The settings on record: Table 1; 50% inhibition of HSV replication relative to control infected cells. (An ELISA detects its analyte on a solid surface through an enzyme-linked reagent.)
Series [3] deals with human T-lymphoblastoid CEM cell line.
For the next series, the system named is HIV-1IIIB. Nature of the series: Acute HIV infection assay (XTT, CEM cells). The conditions noted are these: Table 3. For orientation: Tetrazolium dyes change colour on reduction, which living cells bring about.
Series [4] deals with HSV-1 (KOS). In words: HSV-1 virus yield assay. The series is classed as cell-based, herpes simplex virus. Also noted: dose or concentration left out as unconfirmed. The conditions noted are these: compared with Acyclovir.

Where “and” joins values, the source holds several entries; their conditions need not be identical. Equal values may be shown once.

“5367 (TTGGGGTTGGGGTTGGGGTTGGGGG; phosphodiester, further chemistry not given here) [compound 5367]”: the IC50 in series [1] was greater than 2000 nM; in the series with HIV-1IIIB (inhibition of HIV), 90 nM and 130 nM. For the same substance, the EC50 in the series on HSV-1 (KOS) [2] is greater than 4000 nM. The same substance displayed a TC50 in series [3] of 52000 nM. Besides, in the series with HIV-1IIIB, the “TI (TC50/IC50)” value is listed as 400.
With “TT GGGG TT GGGG TT GGGG TT GGGG (TTGGGGTTGGGGTTGGGGTTGGGG; chemistry not fully specified) [ISIS 5651]”, the “antiviral activity, virus yield” value in the series on HSV-1 (KOS) [4] is given as “greater antiviral activity than did Acyclovir”.

(Values after US20110124715A1, “Antiviral Oligonucleotides Having a Conserved G4 Core Sequence” (priority 1992, published 2011).)
